Among the data in US9624215B2, “Amine derivative or salt thereof” (TOYAMA CHEMICAL CO., LTD., priority 2012, dated 2017) are IC50 values, retold here.

The structures appear in SMILES notation. Bounds are passed on as bounds.

This assay has as its system normal human neonatal foreskin epidermal keratinocytes (NHEK-F). Put plainly: Cell proliferation inhibition test. It is filed as cell-based. To be noted: Keratinocyte, 72 h, NHEK-F cells, three days incubation, ATPlite or CellTiterGlo, read-out: IC50 (concentration of the compound at which the cell count is reduced by 50%). On the procedure:
2×10^3 normal human neonatal foreskin epidermal keratinocytes (NHEK-F) (Kurabo, KK-4009) were suspended in 100 μL of Humedia-EG2 (Kurabo, KK-2150S) medium, plated in a 96-well plate and incubated overnight. The test compound was added on the following day and the cells were incubated for further three days. The cell count was determined using ATPlite (PerkinElmer, 6016739) or CellTiterGlo (Promega, G7573).
The inhibition rate was calculated from the following formula to determine the concentration of the compound at which the cell count is reduced by 50% (IC50). Inhibition rate (%)=100−(cell count in the presence of test compound/cell count in the absence of test compound)×100
`COCCn1ccc2cc(Nc3ncc(C4CC4)cc3C(=O)O)ccc21` [Example 129, 5-cyclopropyl-2-((1-(2-methoxyethyl)-1H-indol-5-yl)amino)nicotinic acid]: the IC50 lay in the range of 100 to 1000 nM.

For `COc1cnc(Nc2ccc3c(ccn3Cc3ccccc3)c2)c(C(=O)O)c1` [Example 132, 2-((1-benzyl-1H-indol-5-yl)amino)-5-methoxynicotinic acid], the IC50 was in the range of 10 to 100 nM.

For the molecule `O=C(O)c1cc(C2CC2)cnc1Nc1ccc2c(ccn2Cc2cccnc2)c1` [Example 137, 5-cyclopropyl-2-((1-(pyridin-3-ylmethyl)-1H-indol-5-yl)amino)nicotinic acid], the IC50 was in the range of 10 to 100 nM.

As to `O=C(O)c1cc(C2CC2)cnc1Nc1ccc2c(ccn2CC2CC2)c1` [Example 146, 5-cyclopropyl-2-((1-(cyclopropylmethyl)-1H-indol-5-yl)amino)nicotinic acid], the IC50 is 10 to 100 nM. The same measure for `O=C(O)c1cc(C2CC2)cnc1Nc1ccc2c(ccn2Cc2ccncc2)c1` [Example 148, 5-cyclopropyl-2-((1-(pyridin-4-ylmethyl)-1H-indol-5-yl)amino)nicotinic acid]: 100 to 1000 nM. In the case of `O=C(O)c1cc(C2CC2)cnc1Nc1ccc2[nH]cc(-c3ccccc3)c2c1` [Example 156, 5-cyclopropyl-2-((3-phenyl-1H-indol-5-yl)amino)nicotinic acid] it was 100 to 1000 nM. The same measure for `Cn1c(C(C)(C)C)cc2cc(Nc3ncc(C4CC4)cc3C(=O)O)ccc21` [Example 157, 2-((2-(tert-butyl)-1-methyl-1H-indol-5-yl)amino)-5-cyclopropylnicotinic acid]: 100 to 1000 nM. As for `CCn1c(C(C)(C)C)cc2cc(Nc3ncc(C4CC4)cc3C(=O)O)ccc21` [Example 158, 2-((2-(tert-butyl)-1-ethyl-1H-indol-5-yl)amino)-5-cyclopropylnicotinic acid], the IC50 lay within 10 to 100 nM. With `CS(=O)(=O)NC(=O)c1cc(C2CC2)cnc1Nc1ccc2c(ccn2-c2ccccc2)c1` [Example 159, 5-cyclopropyl-N-(methylsulfonyl)-2-((1-phenyl-1H-indol-5-yl)amino)nicotinamide], the IC50 lay in the range of 10 to 100 nM. In the case of `CCn1c2c(c3cc(Nc4ncc(C5CC5)cc4C(=O)O)ccc31)CCCC2` [Example 166, 5-cyclopropyl-2-((9-ethyl-2,3,4,9-tetrahydro-1H-carbazol-6-yl)amino)nicotinic acid] it was 100 to 1000 nM. The same measure for `CCn1cc(-c2ccccc2)c2cc(Nc3ncc(C4CC4)cc3C(=O)O)ccc21` [Example 170, 5-cyclopropyl-2-((1-ethyl-3-phenyl-1H-indol-5-yl)amino)nicotinic acid]: 10 to 100 nM; for `CC(C)Cn1c(CO)cc2cc(Nc3ncc(C4CC4)cc3C(=O)O)ccc21` [Example 175, 5-cyclopropyl-2-((2-(hydroxymethyl)-1-isobutyl-1H-indol-5-yl)amino)nicotinic acid]: 100 to 1000 nM; for `O=C(O)c1cc(C2CC2)cnc1Nc1ccc2c(-c3ccccc3)cccc2c1` [Example 177, 5-cyclopropyl-2-((5-phenylnaphthalen-2-yl)amino)nicotinic acid]: at most 10 nM.

As for `O=C(O)c1cc(C2CC2)cnc1Nc1ccc2cccc(-c3ccccc3)c2c1` [Example 179, 5-cyclopropyl-2-((8-phenylnaphthalen-2-yl)amino)nicotinic acid], the IC50 was at most 10 nM. The same measure for `O=C(O)c1cc(C2CC2)cnc1Nc1ccc2c(c1)CCCN2c1ccccc1` [Example 181, 5-cyclopropyl-2-((1-phenyl-1,2,3,4-tetrahydroquinolin-6-yl)amino)nicotinic acid]: at most 10 nM; for `O=C(O)c1cc(C2CC2)cnc1Nc1ccc2c(c1)CCCN2Cc1ccccc1` [Example 183, 2-((1-benzyl-1,2,3,4-tetrahydroquinolin-6-yl)amino)-5-cyclopropylnicotinic acid]: 10 to 100 nM. In the case of `O=C(O)c1cc(C2CC2)cnc1Nc1cccc2c(-c3ccccc3)nccc12` [Example 185, 5-cyclopropyl-2-((1-phenylisoquinolin-5-yl)amino)nicotinic acid] it was at most 10 nM.
